# Results from patent publication US20230330251A1, “METHODS FOR TREATING CANCERS WITH ANTIBODY DRUG CONJUGATES (ADC) THAT BIND TO 191P4D12 PROTEINS” (AGENSYS, INC., priority 2020, published 2023).
# How the values were obtained:
# [1] = Phase 1 study of EV: pharmacokinetics; format: in vivo, human
# Excerpt: Based on pharmacokinetic data from the phase 1 study, the half-life of EV is ˜1-2 days. […] Minimal (<50%) intra-cycle accumulation of MMAE was observed. It is anticipated that the dosing schedule in the study will maintain ADC exposures over each 28-day cycle, contributing to a favorable balance of activity and safety, as observed in the phase 1 trial.
# [2] = test system: metastatic urothelial cancer patients; experiment: Phase 1 study of EV: clinical activity by dose; format: in vivo, human; conditions: 1.25 mg/kg dose vs lower doses
# Protocol: (§1) EV will be administered at a dose of 1.25 mg/kg as an intravenous infusion over approximately 30 minutes on Days 1, 8, and 15 of each 28-day cycle. […] A maximum tolerated dose (MTD) was not reached in this study. At the 1 mg/kg dose level, 2 dose- limiting toxicities (DLTs) were observed: Grade 3 proctalgia (later changed to grade 2 by the investigator) thought related to radiation recall and Grade 4 hyperuricemia without clinical sequelae.
# [3] = test system: subjects with previously treated locally advanced or metastatic urothelial cancer; experiment: EV-301 phase 3 study: overall survival (OS), enfortumab vedotin vs chemotherapy; format: in vivo, human
# Excerpt: Subjects will be stratified according to the following: Eastern Cooperative Oncology Group Performance Status (ECOG PS), regions of the world and liver metastasis.
# OS is the primary endpoint. OS is defined as the time from randomization to the date of death. Secondary endpoints include PFS1, ORR, DOR, DCR, safety and QOL/PRO.
# Subjects in Arm A will receive EV on Days 1, 8 and 15 of each 28-day cycle. […] Within the control arm, the overall proportion of subjects receiving vinflunine will be capped at approximately 35%. Subjects will continue to receive study treatment until radiological disease progression as determined per investigator assessment or other discontinuation criteria are met or upon study termination, or study completion, whichever occurs first. No on-study crossover will be allowed. This study will consist of 3 phases: screening, treatment and follow-up.
# The Full Analysis Set (FAS) will be used for the efficacy analysis on OS and PFS1. All subjects who are randomized will be included in the FAS. For time to event endpoints including OS and PFS1 log-rank test stratified by randomization stratification factors including liver metastasis, baseline ECOG PS and regions of the world at baseline will be used to compare the 2 treatment arms. The hazard ratio and corresponding 95% confidence interval from the stratified Cox proportional hazards regression model will also be presented. The median OS, PFS1 and DOR will be estimated using the Kaplan-Meier method and will be reported along with the corresponding 95% confidence interval by treatment arm.
# Efficacy analysis for OS and PFS was conducted on the FAS. The interpretation of results from statistical tests was based on the FAS. Efficacy analysis for response related endpoints, e.g., ORR and DCR was conducted on RES.
# OS was formally tested at both interim analysis and final analysis. At either interim or final analysis, the formal hypothesis tests on the selected secondary endpoints including PFS1, ORR and DCR, were performed hierarchically (per the order of PFS1->ORR->DCR) only when the OS analysis is rejected. The details about the significance levels at interim analysis and final analysis for each efficacy endpoints (OS, PFS1, ORR and DCR) is specified in SAP.
# The primary efficacy endpoint of OS was analyzed using the log-rank test stratified by ECOG PS (0 vs 1), regions of the world (Western EU, US or the rest of world) and liver metastasis (yes or no). Randomized treatment and the strata used for randomization was used for the analysis. In addition, the stratified Cox proportional hazard model was used to estimate the hazard ratio and the corresponding 95% confidence interval. The median OS was estimated using the Kaplan-Meier method and will be reported along with the corresponding 95% confidence interval by treatment arm.
# The primary analysis was performed using the FAS.
# Additional analyses such as unstratified log-rank test and OS analyses adjusting the crossover effect may be conducted, if appropriate. Details are specified in the SAP.
# [4] = test system: metastatic urothelial cancer patients and non-metastatic urothelial cancer patients; experiment: Phase 1 study of EV, escalating dose levels 0.5-1.25 mg/kg: safety, DLT, MTD; format: in vivo, human
# Protocol: as §1
# Moreover, dose reductions due to AEs were more frequent for the 1.25 mg/kg vs lower dose levels.
# In the phase 1 study, rash and similar dermatologic AE's were common among patients treated with EV, and were seen more frequently at the highest dose. Although the exact etiology of dermatologic toxicities associated with EV is unclear at this time, due to the expression of nectin-4 in the skin, rash maybe an on target toxicity. The most common type of dermatological AE reported in ASG-22CE-13-2 was maculo-papular rash, rash, skin exfoliation, and skin pigmentation disorder. Most occurred early on (during cycle 1), and some were associated with pruritus. Mild rash due to EV should be treated using local supportive care as needed. Topical corticosteroids have been used along with antihistamines for pruritus as needed.
# 191P4D12 = molecular target: T1, 191P4D12 (Homo sapiens, UniProt Q96NY8)
# T1 sequence (Q96NY8 32-510): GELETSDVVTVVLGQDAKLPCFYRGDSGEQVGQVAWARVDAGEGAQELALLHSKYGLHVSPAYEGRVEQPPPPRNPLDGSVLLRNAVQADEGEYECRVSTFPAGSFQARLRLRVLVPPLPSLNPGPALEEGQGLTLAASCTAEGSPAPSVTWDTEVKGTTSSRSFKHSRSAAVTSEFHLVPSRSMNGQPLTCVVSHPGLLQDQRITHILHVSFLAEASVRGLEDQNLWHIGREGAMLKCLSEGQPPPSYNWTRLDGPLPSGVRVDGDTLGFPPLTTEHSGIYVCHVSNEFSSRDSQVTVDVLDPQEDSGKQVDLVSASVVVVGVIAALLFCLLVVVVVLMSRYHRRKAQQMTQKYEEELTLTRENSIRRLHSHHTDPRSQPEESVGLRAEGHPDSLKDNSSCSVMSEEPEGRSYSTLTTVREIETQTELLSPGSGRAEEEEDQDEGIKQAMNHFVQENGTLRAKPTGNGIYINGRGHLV
# Excerpt: As described above and in U.S. Pat. No. 8,637,642, AGS-22M6E is an ADC derived from a murine hybridoma cell line.
substance,measurement,setting,value
enfortumab vedotin,intra-cycle accumulation of ADC,"[1]; dosing on Days 1, 8 and 15 of every 28-day cycle, any dose level",< 30%
same,half-life,[1]; phase 1 study,24 to 48 h
same,clinical activity by dose,[2],highest activity
same,"HR (95% CI), OS sensitivity analysis",[3]; Adjusting in chemotherapy arm based on the rank preserving structural failure time method,0.705 (0.516-0.853)
same,Median OS,[3]; All,12.88 mo
same,"OS, EV vs SC HR",[3]; All,0.702
same,"Overall survival (OS) Events, %",[3]; All,(44.5) %
same,"Overall survival (OS) Events, n/N",[3]; All,134/301
same,Median OS,"[3]; FAS, Kaplan-Meier",12.88 Months
same,"Deaths, %","[3]; FAS, interim analysis",(44.5%)
same,# of Deaths,"[3]; Full Analysis Set, data cutoff 15 Jul. 2020",134
same,"HR (95% CI), OS sensitivity analysis",[3]; Inverse probability of censoring weights method,0.630 (0.435-0.912)
same,reduction in risk of death,[3]; PADCEV vs chemotherapy,30%
same,"HR (95% CI), OS sensitivity analysis",[3]; Unstratified analysis,0.719 (0.572-0.903)
same,estimated percentage of patients alive at 12 months,[3]; in vivo,51.5%
same,overall survival (OS) compared with standard chemotherapy,[3]; in vivo,superior
same,primary endpoint of overall survival compared to chemotherapy,[3]; in vivo,met its primary endpoint of overall survival
same,risk of death lower with enfortumab vedotin than with chemotherapy,[3]; median follow-up 11.1 months,30%
same,dose-limiting toxicities (DLTs) observed,"[4]; 1 mg/kg dose level, Grade 3 proctalgia, Grade 4 hyperuricemia",2
same,DLT,[4]; 1.25 mg/kg,No DLT was observed
same,dose reductions due to AEs,[4]; 1.25 mg/kg vs lower dose levels,more frequent
same,"frequency of all TEAEs, AEs leading to withdrawal, and Grade 3-4 TEAEs",[4]; across dose levels,comparable across all dose levels
same,"Incidence of the most frequent drug-related AEs, such as diarrhea and rash","[4]; by dose level, primarily Grades 1-2",increased with increasing dose levels
same,maximum tolerated dose (MTD),"[4]; dose levels 0.5, 0.75, 1 and 1.25 mg/kg",not reached
same,rash and similar dermatologic AE's,"[4]; phase 1 study, more frequent at the highest dose",common
same,comparability between enfortumab vedotin and AGS-22M6E,191P4D12,confirmed
